The text below walks through data of patent US6841718B2 (priority 2000, dated 2005).

SMILES strings stand for the structures.

This assay relates to bacteria, yeast, algal and fungal spores, and invertebrate larvae. Kind of assay: attachment of organisms.

With `O=C(O)C=Cc1ccc(OS(=O)(=O)O)cc1` [Zosteric acid, para-(sulphooxy) cinnamic acid], the “attachment of a wide range of organisms” value was “inhibits attachment”.
